Four molecules from article PMC8472512, “Synthesis and Biochemical Evaluation of Baicalein Prodrugs” (Pharmaceutics, 2021) can be followed below.

In brackets after ≈: the same amount, converted by molar mass.

Series [1] can be described thus: Stability in mouse plasma. Type of series: in vitro ADME. On the procedure:
Working solutions of the test compounds (baicalein, enalapril, and compounds 1–7) prepared in 50 vol% aqueous MeOH at 40 μM were diluted in mouse plasma in triplicate to a final concentration of 1 μM. The mixtures were then incubated at 37 °C in a shaking water bath. A 50 μL aliquot was removed at 0 and 60 min from each incubation mixture followed by immediate mixing with 150 μL ice-cold MeOH containing 1 μg/mL glipizide as the internal standard (IS). The resulting mixtures, following a 5-min vortexing and sonication, were then centrifuged at 3000 rpm for 30 min at 4 °C. The supernatant was analyzed by Agilent 6460 QQQ LC−MS/MS system in a positive multiple reaction monitoring (MRM) mode. Gradient elution was conducted on an Agilent Eclipse Plus C18 column (100 × 2.1 mm, 3.5 µm) at 40 °C with 0.1 vol% formic acid in deionized water and 0.1 vol% formic acid in acetonitrile running at 0.45 mL/min. MRM transitions of the analytes were set as follows: baicalein: m/z 271→123, enalapril: m/z 377→234, 1: m/z 428→271, 2: m/z 414→271, 3: m/z 428→271, 4: m/z 416→271, 5: m/z 462→271, 6: m/z 386→271, 7: m/z 372→271, and glipizide: m/z 446→321. The analytical data were analyzed using Agilent MassHunter Quantitative Analysis Software (version B.05.00). Peak area ratios of the analytes vs. IS on the MRM chromatograms were used to calculate % remaining at 60 min.

A short description of series [2]: logD7.4 by shake-flask method. Format: physicochemical. Particulars: 0.1 M phosphate buffer (pH 7.4), duplicate. On the procedure: The assay was conducted as reported previously. Briefly, 100 µM test solutions were prepared by diluting 10 mM stock solutions of the test compounds (baicalein and compounds 1–7) in 0.1 M potassium phosphate buffer (pH 7.4) saturated with 1-octanol. Standard solutions were prepared by diluting each test solution with the same volume of DMSO in HPLC vials. Partition solutions were prepared by mixing each test solution and 1-octanol saturated with 0.1 M potassium phosphate buffer (pH 7.4) at three different volume ratios, namely 1:0.02, 1:0.2 and 1:2, in HPLC vials. The partition solutions were then vortexed for 1 h at 1500 rpm at rt. The standard solutions and the aqueous phase (bottom layer) of each partition solution were analyzed directly from the HPLC vials as described above in Chemical stability assay. The logD7.4 values were calculated by the following equation: logD7.4=log(2×As/Ap−1)·Vt/Vo where As and Ap are, respectively, the peak areas of the standard and the aqueous phase of the partition solutions and Vt and Vo the volumes of test solution and 1-octanol of the partition solutions.

Series [3] is described as follows: Metabolic stability in mouse liver S9 fractions. Particulars: presence of the cofactor mixture (NADPH, UDPGA, PAPS, GSH), 37 °C, 60 min. Format: in vitro ADME. The method, then:
Working solutions of the test compounds (baicalein, 7-EC, and compounds 1–7) prepared in 50 vol% aqueous MeOH at 120 μM were added in triplicate to a 200 mM tris buffer (pH 7.4) containing mouse liver S9 fractions (1 mg protein/mL), alamethicin (25 μg/mL) and MgCl2 (2 mM). The final concentration of test compound was 3 μM. This mixture was pre-incubated at 37 °C in a shaking water bath for 5 min followed by addition of a cofactor mixture to following final concentrations: 1 mM NADPH, 0.5 mM UDPGA, 0.1 mM PAPS and 2.5 mM GSH. A 50 μL aliquot was taken at 0, 15, 30 and 60 min from each incubation mixture. These samples were then treated in the same way as described above in Mouse plasma stability assay. The supernatant was analyzed by Agilent 6530 Q−TOF LC−MS/MS system in a positive auto MS/MS scan mode. The liquid chromatography was conducted in the same condition as described above in mouse plasma stability assay. The analytical data were analyzed using Agilent MassHunter Quantitative Analysis Software (version B.05.00). MS chromatograms were extracted using calculated exact masses ([M+H]^+) for the analytes. Peak area ratios of the analytes vs. IS on the extracted MS chromatograms were used to calculate % remaining values at each time points.

Series [4] is described as follows: Chemical stability in physiologically-relevant solutions. Type of series: physicochemical. Particulars: 37 °C; for remaining at 4 h, 10 μM: at 4 h vs time 0. The method, then: Stock solutions of the test compounds (baicalein, compounds 1–7) prepared in MeOH at 10 mM were diluted in 0.1 N HCl and 0.1 M potassium phosphate buffer (pH 6.5 and 7.4) in triplicate to a final concentration of 10 μM. The mixtures were then incubated at 37 °C in a shaking water bath. Samples taken at 0, 1, 2, 3 and 4 h were analyzed by Thermo UltiMate 3000 series HPLC system. Chromatographic separation was performed on an Agilent Eclipse Plus C18 column (100 × 4.6 mm, 3.5 µm) kept at 40 °C with isocratic elution at a flow rate of 0.6 mL/min using a mixture of 0.1 vol% TFA in deionized water and acetonitrile as the mobile phase. The detection wavelengths were 277 and 270 nm for baicalein and compounds 1–7, respectively. Peak areas of the analytes on the UV chromatograms were used to calculate % remaining values at each time points.
The stability of baicalein and of the synthesized carbamate prodrugs (1–7) was determined in solutions mimicking gastric (0.1 N HCl, pH ~ 1), intestinal (pH 6.5 phosphate buffer), and physiological (pH 7.4 phosphate buffer) conditions. […]. […] […]. The degradation of the carbamate prodrugs was accompanied by the formation of baicalein under all conditions in this study (data not shown). Although the exact reason for this pH-dependent stability remains unknown, it is plausible that the side chains of amino acids somehow affect the hydrolysis of the carbamate bond of the prodrugs.

Series [5] can be described thus: in vitro. Particulars: PAMPA.
Description: The assay was conducted as reported previously [15]. The samples were analyzed as described below in mouse plasma stability assay.
The nature of series [6]: Mouse pharmacokinetics. Format: in vivo, male ICR mice. The settings on record: for AUC(0-t) / Cmax / Tmax / AUC(0-inf) / half-life: male, ICR, mouse. On the procedure:
Pharmacokinetic studies were conducted with male ICR mice (8 weeks old; 30–35 g body wt.) purchased from Koatech Company (Pyeongtaek, Korea), as reported previously. Intravenous dosing solutions were prepared in EtOH/20% aqueous HPβCD (10/90 vol%) at 2 and 3 mg/mL for baicalein and compound 2, respectively. Oral dosing solutions were prepared in EtOH/tween 80/20% aqueous HPβCD (10/10/80 vol%) at 1 and 1.5 mg/mL for baicalein and compound 2, respectively. Plasma sample analysis was performed as described above in mouse plasma stability assay.

The nature of series [7]: Kinetic solubility in phosphate buffer (pH 7.4). Type of series: physicochemical. The settings on record: aqueous buffer, kinetic from dmso stock; shake-flask, 0.1 M phosphate buffer (pH 7.4), triplicate. On the procedure:
Stock solutions of the test compounds (baicalein and compounds 1–7) prepared at 10 mM in DMSO were diluted with 0.1 M potassium phosphate buffer (pH 7.4) in Mini-UniPrep filter vial (PTFE membrane, 0.45 μm) to a final concentration of 500 µM. The mixture was then shaken at 800 rpm for 90 min at rt and filtered by slowly pressing the upper tube of the Mini-Uniprep vial. The filtrate (300 µL) was then transferred to an HPLC vial containing same volume of acetonitrile. Sample analysis was conducted as described above in Chemical stability assay.

Where [8] appears, read: iv, plasma analyte after single i.v. dose of baicalein 10 mg/kg, mice.
Setting [9] is: iv, plasma analyte after single i.v. dose of compound 2 15 mg/kg, mice.
Where [10] appears, read: po, plasma analyte after single p.o. dose of compound 2 50 mg/kg, mice.

For `CCOC(=O)[C@H](CCc1ccccc1)N[C@@H](C)C(=O)N1CCC[C@H]1C(=O)O` [Enalapril, enalapril], the “% remaining in mouse plasma” value in series [1] (60 min incubation at 37 °C, 1 μM) is “degraded”.
For `O=c1cc(-c2ccccc2)oc2cc(O)c(O)c(O)c12` [Baicalein, 5,6,7-trihydroxy-2-phenyl-4H-1-benzopyran-4-one], the log distribution coefficient (logD) – broadly, lipophilicity at a set pH, counting ionised and neutral species – in series [2] (1-octanol / 0.1 M potassium phosphate buffer) came to 2.14. Also, the share remaining at 1 h, 1 μM in series [1] (mouse, plasma) was greater than 85%. The “metabolism in mouse liver S9 fractions” value in series [3] is listed as “rapidly metabolized”. Also, the half-life (usually how long it takes for the measured level to halve) at 10 μM is greater than 4 h in series [4] (0.1 M potassium phosphate buffer, pH 6.5 buffer (0.1 M potassium phosphate)); greater than 4 h in series [4] (0.1 M potassium phosphate buffer, pH 7.4 buffer (0.1 M potassium phosphate)); greater than 4 h in series [4] (pH 1, 0.1 N HCl, 10 μM). Also, the share remaining at 4 h, 10 μM came to 101 ± 2.8% in series [4] (0.1 M potassium phosphate buffer, pH 6.5 buffer); 65.8 ± 2.6% in series [4] (0.1 M potassium phosphate buffer, pH 7.4 buffer); 104 ± 4.1% in series [4] (pH 1, 0.1 N HCl). Moreover, in series [5], the Papp (as a rule, a coefficient for how fast a substance crosses the barrier) turned out to be 5.75 ± 0.14 ×10⁻⁶ cm/s. Moreover, the “time plasma analyte was above the quantitation limit” value in series [6] (after i.v. dose of compound 2 (approximately equimolar to 10 mg/kg baicalein), mice) was 8 h; in series [6] (after p.o. administration of compound 2, mice) it was 8 h; in series [6] (after single i.v. dose of 10 mg/kg baicalein, mice), “up to 15 min”; in series [6] (after single p.o. dose of 10 mg/kg baicalein, mice, 24 h time course), “below the quantitation limit”. Also, the area under the curve AUC(0-t) (in general, exposure summed from dosing to a finite time, without extrapolation to infinity) in series [6] (setting [8]) is 1090 ± 640 ng·h/mL; in series [6] (setting [9]), 4240 ± 1430 ng·h/mL; in series [6] (setting [10]), 450 ± 140 ng·h/mL. Further, the Cmax (in general, the peak of the concentration-time curve) in series [6] (setting [8]) amounted to 1470 ± 330 ng/mL; in series [6] (setting [9]), 4190 ± 450 ng/mL; in series [6] (setting [10]), 230 ± 90 ng/mL. Moreover, the Tmax (usually the time from dosing to the highest level) in series [6] (setting [8]) is 0.1 h; in series [6] (setting [9]), 0.1 h; in series [6] (setting [10]), 0.3 ± 0.09 h. The figures for the area under the curve AUC(0-inf) in series [6] (setting [9]) and in series [6] (setting [10]) were 4390 ± 1570 ng·h/mL and 540 ± 150 ng·h/mL, respectively. Further, the half-life is 1.5 ± 0.3 h in series [6] (setting [9]) and 2.6 ± 1.5 h in series [6] (setting [10]).
Consider `CCOc1ccc2ccc(=O)oc2c1` [7-Ethoxycoumarin], for which, in series [3], the “metabolism in mouse liver S9 fractions” value is “rapid metabolism”.
`O=C(N[C@@H](Cc1ccccc1)C(=O)O)Oc1cc2oc(-c3ccccc3)cc(=O)c2c(O)c1O` [Compound 5, (S)-2-((((5,6-Dihydroxy-4-oxo-2-phenyl-4H-chromen-7-yl)oxy)carbonyl)amino)-3-phenylpropanoic acid] gave a logD in series [2] of 0.43. Besides, the “metabolism in mouse liver S9 fractions” value in series [3] is “metabolized much faster than the other prodrugs”. Further, the solubility (kinetic) (commonly the concentration staying in solution when a stock, usually in DMSO, is diluted into the medium) at 90 min in series [7] worked out at 375 ± 21.4 µM (≈ 173 µg/mL). For the same molecule, the half-life at 10 μM in series [4] (buffer, pH 1, 0.1 N HCl, 10 μM) was 2.2 ± 0.4 h; in series [4] (pH 6.5 buffer (0.1 M potassium phosphate)), greater than 4 h; in series [4] (pH 7.4 buffer (0.1 M potassium phosphate)), greater than 4 h. Besides, the amount remaining at 4 h, 10 μM was determined as 27.4 ± 5.1% in series [4] (buffer, pH 1, 0.1 N HCl); 78.5 ± 1.5% in series [4] (pH 6.5 buffer); 70.2 ± 2.5% in series [4] (pH 7.4 buffer).
